Source: article PMC12527922, “Cocaine chemogenetics blunts drug-seeking by synthetic physiology” (Nature, 2025)
Values joined by “and” are separate entries in the source; they are usually repeats but may differ in a detail not shown here. Identical values can stand only once.

Molecular target: coca-5HT3 (α7(L141G,G175K,Y210F,Y217F)–5HT3) (Homo sapiens, UniProt P36544, G175K/L141G/Y210F/Y217F)
Assay: Membrane potential assay, coca-5HT3 in HEK293
Details: for Max normalized Response / Response: coca-5HT3; for Max normalized Response: ED Fig 3b
[1] = membrane potential assay dose response
[2] = coca5HT3, Choline Conc 1.37174 uM
[3] = coca5HT3, Choline Conc 12.3457 uM
[4] = coca5HT3, Choline Conc 37.037 uM
[5] = coca5HT3, Choline Conc 111.111 uM
[6] = coca5HT3, Choline Conc 333.333 uM

Chain of coca-5HT3 (α7(L141G,G175K,Y210F,Y217F)–5HT3) (P36544 23-224 L141G/G175K/Y210F/Y217F): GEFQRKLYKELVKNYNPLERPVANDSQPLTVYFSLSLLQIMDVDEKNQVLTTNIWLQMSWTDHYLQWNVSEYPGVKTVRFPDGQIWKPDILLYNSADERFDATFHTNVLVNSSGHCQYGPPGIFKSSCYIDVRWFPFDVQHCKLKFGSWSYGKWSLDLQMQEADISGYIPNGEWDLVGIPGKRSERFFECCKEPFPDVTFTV
Chain of coca-5HT3 (α7(L141G,G175K,Y210F,Y217F)–5HT3) (P23979 242-489, further chain): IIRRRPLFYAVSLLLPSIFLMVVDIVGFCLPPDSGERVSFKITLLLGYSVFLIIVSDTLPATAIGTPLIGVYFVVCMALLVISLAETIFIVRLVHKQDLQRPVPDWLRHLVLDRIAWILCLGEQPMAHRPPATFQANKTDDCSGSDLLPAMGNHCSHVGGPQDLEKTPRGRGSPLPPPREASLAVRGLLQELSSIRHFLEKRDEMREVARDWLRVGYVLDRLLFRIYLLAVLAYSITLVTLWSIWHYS

With `C[N+]1(C)[C@@H]2C[C@@H](OC(=O)[C@H](CO)c3ccccc3)C[C@H]1[C@@H]1O[C@@H]12` [Methscopolamine] the “Max normalized Response” value (conc 0.137 uM) was 0.01611, the “Max normalized Response” value (conc 3.7 uM) was 0.08959 and the “Max normalized Response” value (conc 11.1 uM) was 0.03432. The “Max normalized Response” value (conc 33.3 uM) was 0.1141 and the “Max normalized Response” value (conc 100 uM) was 0.3973.
`C[N+]1(C)[C@@H]2CC[C@H]1C[C@@H](OC(=O)C(CO)c1ccccc1)C2` (stereo partly shown) [Methylatropine] was tested, and the “response at coca-5HT3” value (between 10-100 µM) was “substantial response”, the “Max normalized Response” value (conc 0.137 uM) was 0.09159 and the “Max normalized Response” value (conc 3.7 uM) was 0.07315. For the same molecule, the “Max normalized Response” value (conc 11.1 uM) was 0.365, the “Max normalized Response” value (conc 33.3 uM) was 0.7258 and the “Max normalized Response” value (conc 100 uM) was 0.936.
`NC[C@H](O)c1ccc(O)c(O)c1` [Norepinephrine] showed a Response (conc 0.457247 uM, ED Fig 3a) of 0.151, a Response (conc 1.37174 uM, ED Fig 3a) of 0.081 and a Response (conc 12.3457 uM, ED Fig 3a) of 0.077. The Response (conc 37.037 uM, ED Fig 3a) was 0.059, the Response (conc 111.111 uM, ED Fig 3a) was 0.059 and the Response (conc 333.333 uM, ED Fig 3a) was 0.043.
In the case of `CC[N+]1(C)[C@@H]2CC(OC(=O)[C@H](CO)c3ccccc3)C[C@H]1[C@@H]1O[C@@H]12` (stereo partly shown) [Oxitroprium], the “Max normalized Response” value (conc 0.137 uM) is reported as 0.04923, the “Max normalized Response” value (conc 3.7 uM) is reported as 0.04777 and the “Max normalized Response” value (conc 11.1 uM) is reported as 0.1339. The “Max normalized Response” value (conc 33.3 uM) was 0.03611 and the “Max normalized Response” value (conc 100 uM) was 0.1339.
With `CCN(CC)CCOC(=O)c1ccc(N)cc1` [Procaine] the “Max normalized Response” value (conc 0.137 uM) was 0.07766, the “Max normalized Response” value (conc 3.7 uM) was 0.1325 and the “Max normalized Response” value (conc 11.1 uM) was 0.1562. For the same molecule, the “Max normalized Response” value (conc 33.3 uM) was 0.143, the “Max normalized Response” value (conc 100 uM) was 0.166 and the “activation of coca-5HT3” value (up to 100 µM) was “did not activate”.
In the case of `CN1[C@@H]2C[C@@H](OC(=O)[C@H](CO)c3ccccc3)C[C@H]1[C@@H]1O[C@@H]12` [Scopolamine], the “Max normalized Response” value (conc 0.137 uM) is reported as 0.06195, the “Max normalized Response” value (conc 3.7 uM) is reported as 0.06448 and the “Max normalized Response” value (conc 11.1 uM) is reported as 0.04953. For the same molecule, the “Max normalized Response” value (conc 33.3 uM) was 0.06371 and the “Max normalized Response” value (conc 100 uM) was 0.0598.
With `NCCc1c[nH]c2ccc(O)cc12` [Serotonin] the Response (conc 1.37174 uM, ED Fig 3a) was 0.295, the Response (conc 12.3457 uM, ED Fig 3a) was 0.101 and the Response (conc 37.037 uM, ED Fig 3a) was 0.082. It also gave a Response (conc 111.111 uM, ED Fig 3a) of 0.115, a Response (conc 333.333 uM, ED Fig 3a) of 0.156 and a Response (conc 1000 uM, ED Fig 3a) of 0.112.
With `C[N+]1(C)[C@@H]2C[C@@H](OC(=O)C(O)(c3cccs3)c3cccs3)C[C@H]1[C@@H]1O[C@@H]12` [Tiotropium] the “Max normalized Response” value (conc 0.137 uM) was 0.05284, the “Max normalized Response” value (conc 3.7 uM) was 0.03225 and the “Max normalized Response” value (conc 11.1 uM) was 0.04379. The “Max normalized Response” value (conc 33.3 uM) was 0.159 and the “Max normalized Response” value (conc 100 uM) was 0.2432.
In the case of `O=C(O[C@H]1C[C@H]2CC[C@@H](C1)[N+]21CCCC1)C(O)(c1ccccc1)c1ccccc1` [Trospium], the “Max normalized Response” value (conc 0.137 uM) is reported as 0.127, the “Max normalized Response” value (conc 3.7 uM) is reported as 0.2063 and the “Max normalized Response” value (conc 11.1 uM) is reported as 0.1005. The “Max normalized Response” value (conc 33.3 uM) was 0.1217 and the “Max normalized Response” value (conc 100 uM) was 0.03704.
For `Nc1ncnc2c1ncn2[C@@H]1O[C@H](CO)[C@@H](O)[C@H]1O` [adenosine], the Response (conc 0.457247 uM, ED Fig 3a) was 0.126, the Response (conc 1.37174 uM, ED Fig 3a) was 0.045 and the Response (conc 12.3457 uM, ED Fig 3a) was 0.079. The Response (conc 37.037 uM, ED Fig 3a) was 0.053.
Work on `CC(N)Cc1ccccc1` (stereo not shown) [amphetamine] yielded a Response (conc 0.0137 uM, ED Fig. 2c) of 0.05, a Response (conc 0.123 uM, ED Fig. 2c) of 0.058 and a Response (conc 0.37 uM, ED Fig. 2c) of 0.049. For the same molecule, the Response (conc 10 uM, ED Fig. 2c) was 0.028, the Response (conc 30 uM, ED Fig. 2c) was 0.055 and the “activation of coca-5HT3” value [1] was “did not activate”.
`CN1[C@H]2CC[C@@H]1[C@@H](C(=O)O)[C@@H](OC(=O)c1ccccc1)C2` [benzoyl ecgonine] was tested, and the Response (conc 0.0137174 uM, ED Fig. 2b) was 0.07, the Response (conc 0.123457 uM, ED Fig. 2b) was 0.088 and the Response (conc 0.37037 uM, ED Fig. 2b) was 0.072. The Response (conc 1.11111 uM, ED Fig. 2b) was 0.062, the Response (conc 3.33333 uM, ED Fig. 2b) was 0.097 and the Response (conc 10 uM, ED Fig. 2b) was 0.074. For the same molecule, the Response (conc 30 uM, ED Fig. 2b) was 0.088 and the “activation of coca-5HT3” value [1] was “not activated”.
For `C[N+](C)(C)CCO` [choline], the “EC50 relative to peak physiological levels” value (EC50 above peak physiological levels) was “about 100 fold”, the “Max normalized response, AVG” value [2] was 0.0611 and the “Max normalized response, replicates” value [2] was 0.1043 and 0.06655 and 0.04444 and 0.02913. For the same molecule, the “Response, dose-response replicates (DR 1-4)” value (from here on “Response … (DR 1-4)”) [2] was 0.056 and 0.037 and 0.008 and 0.006, the “Max normalized response, AVG” value [3] was 0.06296 and the “Max normalized response, replicates” value [3] was 0.05773 and 0.04496 and 0.02778 and 0.1214. The “Response … (DR 1-4)” value [3] was 0.031 and 0.025 (2×) and 0.005, the “Max normalized response, AVG” value [4] was 0.0516 and the “Max normalized response, replicates” value [4] was 0.04283 and 0.03237 and 0.07778 and 0.0534. The “Response … (DR 1-4)” value [4] was 0.023 and 0.018 and 0.014 and 0.011, the “Max normalized response, AVG” value [5] was 0.04734 and the “Max normalized response, replicates” value [5] was 0.03724 and 0.04317 and 0.05556 and 0.0534. The “Response … (DR 1-4)” value [5] was 0.02 and 0.024 and 0.01 and 0.011, the “Max normalized response, AVG” value [6] was 0.07674 and the “Max normalized response, replicates” value [6] was 0.0838 and 0.08993 and 0.05556 and 0.07767. For the same molecule, the “Response … (DR 1-4)” value [6] was 0.045 and 0.05 and 0.01 and 0.016, the “Max normalized response, AVG” value (coca5HT3, Choline Conc 1000 uM) was 0.4005 and the “Max normalized response, replicates” value (coca5HT3, Choline Conc 1000 uM) was 0.4022 and 0.5288 and 0.3556 and 0.3155. For the same molecule, the “Response … (DR 1-4)” value (coca5HT3, Choline Conc 1000 uM) was 0.216 and 0.294 and 0.064 and 0.065, the “Max normalized response, AVG” value (coca5HT3, Choline Conc 3000 uM) was 1 and the “Max normalized response, replicates” value (coca5HT3, Choline Conc 3000 uM) was 1. The “Response … (DR 1-4)” value (coca5HT3, Choline Conc 3000 uM) was 0.537 and 0.556 and 0.18 and 0.206, the “max response of each dose-response replicate” value (coca5HT3, Choline, used for normalization) was 0.537 and 0.556 and 0.18 and 0.206 and the EC50 (half-maximum effective concentration (EC50), HEK293, fluorescence membrane potential assay) was 1210 µM.
Work on `CC(=O)Oc1ccc2c3c1O[C@H]1[C@@H](OC(C)=O)C=C[C@H]4[C@@H](C2)N(C)CC[C@@]341` [heroin] yielded a Response (conc 0.0137 uM, ED Fig. 2c) of 0.058, a Response (conc 0.123 uM, ED Fig. 2c) of 0.046 and a Response (conc 0.37 uM, ED Fig. 2c) of 0.054. The Response (conc 10 uM, ED Fig. 2c) was 0.109, the Response (conc 30 uM, ED Fig. 2c) was 0.105 and the “activation of coca-5HT3” value [1] was “did not activate”.
